# Data published in PMC12398505 (Nature Communications, 2025).
# Legend:
# human SLCO2A1 = human SLCO2A1 (Homo sapiens, UniProt Q92959); experiment: 6-CF uptake assay in HEK293F cells expressing SLCO2A1 WT
# SLCO2A1 [1] = settings: read-out: IC50 in competitively inhibiting radioactive PGE2; pH 7.4; cited from earlier work
# SLCO2A1 C420F mutant = SLCO2A1 C420F mutant (Homo sapiens, UniProt Q92959, C420F); experiment: 6-CF uptake assay, HEK293F cells expressing SLCO2A1 C420F; assay type: cell-based; settings: C420F mutant vs WT
# SLCO2A1 R445C mutant = SLCO2A1 R445C mutant (Homo sapiens, UniProt Q92959, R445C); experiment: 6-CF uptake assay, HEK293F cells expressing SLCO2A1 R445C; assay type: cell-based; settings: 50 μM 6-CF
# SLCO2A1 Y90A mutant = SLCO2A1 Y90A mutant (Homo sapiens, UniProt Q92959, Y90A); experiment: 6-CF uptake assay, HEK293F cells expressing SLCO2A1 Y90A; assay type: cell-based; settings: 50 μM 6-CF
# SLCO2A1 C448A mutant = SLCO2A1 C448A mutant (Homo sapiens, UniProt Q92959, C448A); experiment: 6-CF uptake assay, HEK293F cells expressing SLCO2A1 C448A; assay type: cell-based; settings: C448A mutant vs WT
# SLCO2A1 E465K mutant = SLCO2A1 E465K mutant (Homo sapiens, UniProt Q92959, E465K); experiment: 6-CF uptake assay, HEK293F cells expressing SLCO2A1 E465K; assay type: cell-based; settings: E465K mutant vs WT
# SLCO2A1 S346A mutant = SLCO2A1 S346A mutant (Homo sapiens, UniProt Q92959, S346A); assay type: cell-based
# SLCO2A1 W565F mutant = SLCO2A1 W565F mutant (Homo sapiens, UniProt Q92959, W565F); experiment: 6-CF uptake assay, HEK293F cells expressing SLCO2A1 W565F; assay type: cell-based; settings: 50 μM 6-CF
# SLCO2A1 C143A mutant = SLCO2A1 C143A mutant (Homo sapiens, UniProt Q92959, C143A); experiment: 6-CF uptake assay, HEK293F cells expressing SLCO2A1 C143A; assay type: cell-based; settings: C143A mutant vs WT
# SLCO2A1 [2] = settings: read-out: Km for 6-CF reported in a previous study; cited from earlier work
Molecule,IC50 (human SLCO2A1) [nM],"IC50 (6-CF uptake) relative to IC50 (radioactive PGE2, pH 7.4) (human SLCO2A1; IC50 2.21 μM vs 0.17 μM) [fold]",IC50 (SLCO2A1 [1]) [nM],decrease of 6-CF uptake activity (SLCO2A1 C420F mutant),6-CF uptake (percentage of SLCO2A1-WT) (SLCO2A1 R445C mutant) [%],6-CF uptake (percentage of SLCO2A1-WT) (SLCO2A1 Y90A mutant) [%],reduction of the 6-CF uptake activity (SLCO2A1 C448A mutant) [%],decrease of 6-CF uptake activity (SLCO2A1 E465K mutant),increase in 6-CF uptake activity (SLCO2A1 S346A mutant) [fold],6-CF uptake (percentage of SLCO2A1-WT) (SLCO2A1 W565F mutant) [%],reduction of the 6-CF uptake activity (SLCO2A1 C143A mutant),Km (SLCO2A1 [2]) [µM]
Cc1ccc(C(=O)Nc2ccc(S(=O)(=O)O)c3cc(S(=O)(=O)O)cc(S(=O)(=O)O)c23)cc1NC(=O)c1cccc(NC(=O)Nc2cccc(C(=O)Nc3cc(C(=O)Nc4ccc(S(=O)(=O)O)c5cc(S(=O)(=O)O)cc(S(=O)(=O)O)c45)ccc3C)c2)c1 [suramin],2210 ± 370,13,170,,,,,,,,,
6-Carboxyfluorescein [6-CF],,,,more than 80%,60,60,~55,more than 80%,1.5,~50,approximately 80%,270 ± 40.7
